Tests used:
Test in all cases: relative viability (nuclei count vs DMSO), 5 days (fraction); higher = more cells survive
[1] = compound: COc1cc2nccc(Oc3ccc(NC(=O)C4(C(=O)Nc5ccc(F)cc5)CC4)cc3)c2cc1OC [Cabozantinib] + CS(=O)(=O)CCNCc1ccc(-c2ccc3ncnc(Nc4ccc(OCc5cccc(F)c5)c(Cl)c4)c3c2)o1 [Lapatinib] (partner 2 µM)
In short: (§1)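 Relative viability is defined as nuclei in treated wells over nuclei in vehicle wells. Duplicate plates were run and medians reported. Lung cancer cell lines in 1536-well plates were dosed by pin tool one day after seeding, with one drug or with a fixed anchor-drug dose plus five library-drug doses (not always all listed) in √10 steps, and nuclei were counted after 5 days.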

[2] = compound: C1=CC(=CC=C1NC(=S)NNC2=C(C=C(C=C2[N+](=O)[O-])C(F)(F)F)[N+](=O)[O-])F [Kobe2602] + CCNC(=O)c1noc(-c2cc(C(C)C)c(O)cc2O)c1-c1ccc(CN2CCOCC2)cc1 [Luminespib] (partner 0.01 µM)
In short: as §1

[3] = compound: C1=CC(=CC=C1NC(=S)NNC2=C(C=C(C=C2[N+](=O)[O-])C(F)(F)F)[N+](=O)[O-])F [Kobe2602] + NC(=O)Nc1cc(-c2cccc(F)c2)sc1C(=O)N[C@H]1CCCNC1 [AZD7762] (partner 0.2 µM)
In short: as §1

[4] = compound: C1=CC(=CC=C1NC(=S)NNC2=C(C=C(C=C2[N+](=O)[O-])C(F)(F)F)[N+](=O)[O-])F [Kobe2602] + C[C@@H](Oc1cc(-c2cnn(C3CCNCC3)c2)cnc1N)c1c(Cl)ccc(F)c1Cl [Crizotinib] (partner 1 µM)
In short: as §1

Cell Line	relative viability ([1]; first compound 0.02 µM)	relative viability ([1]; first compound 0.06325 µM)	relative viability ([1]; first compound 0.2 µM)	relative viability ([1]; first compound 0.6325 µM)	relative viability ([1]; first compound 2 µM)	relative viability ([2]; first compound 0.2 µM)	relative viability ([2]; first compound 0.6325 µM)	relative viability ([2]; first compound 2 µM)	relative viability ([2]; first compound 6.325 µM)	relative viability ([2]; first compound 20 µM)	relative viability ([3]; first compound 0.2 µM)	relative viability ([3]; first compound 0.6325 µM)	relative viability ([3]; first compound 2 µM)	relative viability ([3]; first compound 6.325 µM)	relative viability ([3]; first compound 20 µM)	relative viability ([4]; first compound 0.2 µM)	relative viability ([4]; first compound 0.6325 µM)	relative viability ([4]; first compound 2 µM)	relative viability ([4]; first compound 6.325 µM)	relative viability ([4]; first compound 20 µM)
NCI-H1437	0.892	0.91	0.798	0.823	0.779	1.12	1.11	1.1	1.14	0.984	1.17	1.14	1.11	1.05	1.02	0.862	0.918	0.902	0.91	0.9
EKVX	0.172	0.207	0.203	0.21	0.191	0.9	0.948	0.832	0.871	0.858	0.724	0.701	0.736	0.722	0.865	1.11	0.705	0.865	0.887	0.956
NCI-H596	1.17	1.21	0.956	1.05	1.02	1.03	0.922	1.03	0.844	0.873	1.13	0.978	1.03	0.87	1.02	0.723	1.03	0.944	1.21	1
NCI-H1993	0.76	0.807	0.792	0.725	0.814	0.673	0.794	0.605	0.658	0.769	0.812	0.847	0.611	0.698	0.688	0.82	0.89	0.72	0.753	0.782
HCC-78	0.458	0.922	0.348	0.305	0.286	–	–	–	–	–	0.7	0.675	0.748	0.588	0.774	0.382	0.302	–	0.333	0.363
NCI-H2087	1.09	1.18	1.02	1.01	0.982	0.226	0.153	0.174	0.143	0.153	1.24	1.22	1.22	1.32	1.13	0.671	0.766	0.922	0.786	0.802
H3255	0.182	0.234	–	0.366	0.217	0.769	0.981	0.902	0.937	0.878	0.868	0.956	0.868	0.775	0.864	0.906	1.12	0.802	0.839	0.874
NCI-H2126	0.612	0.843	0.723	0.75	0.77	0.947	0.976	0.895	0.884	0.825	1.07	1.01	1.09	1.08	0.988	1.01	1.06	0.962	1.01	0.912
SW 1573	1.06	1.03	1.23	1.23	1.04	0.202	0.212	0.21	0.458	0.0872	–	–	–	–	–	0.788	0.879	0.736	0.863	0.912
EBC-1	0.192	0.17	0.242	0.195	0.213	–	–	–	–	–	–	–	–	–	–	0.225	0.239	0.185	0.203	0.216
NCI-H1650	0.788	0.916	0.904	0.708	0.568	0.188	0.185	0.177	0.211	0.178	–	–	–	–	–	0.913	1.01	0.92	1.07	1.05
COR-L 105	0.321	0.341	–	0.352	0.372	0.591	0.896	0.848	0.643	0.719	–	–	–	–	–	0.85	0.838	0.653	0.966	0.831
NCI-H1703	–	0.587	0.337	0.282	0.231	–	–	–	–	–	–	0.13	0.111	–	0.173	0.775	0.66	0.56	0.829	0.501
SK-MES-1	0.468	0.497	0.42	0.448	0.396	0.67	0.778	0.853	0.832	0.406	–	–	–	–	–	0.966	0.964	0.954	1.04	1
NCI-H522	–	–	–	–	–	1.08	1.25	1.31	1.09	1.03	1.02	1.14	0.855	0.954	0.859	–	–	–	–	–
NCI-H1793	0.95	1.15	0.571	0.508	0.594	0.185	0.201	0.217	0.47	0.205	0.654	0.352	0.641	0.287	0.539	–	–	–	–	–
NCI-H2023	0.473	0.74	0.708	0.552	0.591	0.596	0.783	0.759	0.528	0.156	–	–	–	–	–	0.674	0.627	0.526	0.611	0.473
SK-LU-1	–	0.539	0.929	0.774	0.634	0.204	0.222	0.189	0.188	0.205	–	–	–	–	–	0.94	0.944	0.965	1.06	0.924
Calu-6	1.14	1.2	1.15	0.986	1.05	–	–	–	–	–	–	–	–	–	–	0.84	0.78	0.786	0.744	0.813

Cell Line	relative viability ([1]; first compound 0.02 µM)	relative viability ([1]; first compound 0.06325 µM)	relative viability ([1]; first compound 0.2 µM)	relative viability ([1]; first compound 0.6325 µM)	relative viability ([1]; first compound 2 µM)	relative viability ([2]; first compound 0.2 µM)	relative viability ([2]; first compound 0.6325 µM)	relative viability ([2]; first compound 2 µM)	relative viability ([2]; first compound 6.325 µM)	relative viability ([2]; first compound 20 µM)	relative viability ([3]; first compound 0.2 µM)	relative viability ([3]; first compound 0.6325 µM)	relative viability ([3]; first compound 2 µM)	relative viability ([3]; first compound 6.325 µM)	relative viability ([3]; first compound 20 µM)	relative viability ([4]; first compound 0.2 µM)	relative viability ([4]; first compound 0.6325 µM)	relative viability ([4]; first compound 2 µM)	relative viability ([4]; first compound 6.325 µM)	relative viability ([4]; first compound 20 µM)
NCI-H2342	–	–	–	–	–	0.826	0.735	0.741	0.692	0.773	0.47	0.448	0.704	0.461	0.655	–	–	–	–	–
COR-L23	1.04	1.14	0.947	1.12	0.878	0.685	0.64	0.537	0.648	0.684	–	–	–	–	–	0.656	0.573	0.647	0.745	0.7
ChaGo-K-1	–	–	–	–	–	0.684	0.53	0.743	0.617	0.507	0.891	0.836	0.878	0.892	0.872	1.16	1.2	1.14	1.13	0.935
NCI-H1563	0.946	0.966	1.04	0.844	1.21	0.579	0.492	0.52	0.543	0.512	–	–	–	–	–	0.844	0.885	0.749	0.939	0.85
NCI-H441	–	–	–	–	–	0.328	0.374	0.327	0.358	0.296	1.1	1.11	1.13	1.13	1.06	0.719	0.662	0.606	0.876	0.713
NCI-H1299	0.95	1.04	0.936	1.03	1.04	–	–	–	–	–	–	–	–	–	–	0.922	0.938	0.93	0.952	0.925
NCI-H2009	1.06	0.959	1	0.965	0.941	1.04	1.1	1.07	1.09	0.964	–	–	–	–	–	1.02	1.03	1.01	1.05	1.03
NCI-H1623	–	–	–	–	–	0.578	0.427	0.571	0.368	0.491	–	–	–	–	–	–	–	–	–	–
HCC-366	1.08	1.07	1.05	1.13	0.957	–	–	–	–	–	0.22	0.269	0.312	0.183	0.421	0.434	0.597	0.494	0.569	0.655
SW 900	–	–	–	–	–	0.164	0.185	0.191	0.166	0.199	0.7	0.551	0.496	0.657	0.595	–	–	–	–	–
NCI-H520	1.08	0.924	0.72	0.973	0.566	0.256	0.193	0.224	0.206	0.215	–	–	–	–	–	0.694	0.711	0.746	0.757	0.763
NCI-H1648	–	–	–	–	–	–	–	–	–	–	0.741	0.656	0.586	0.624	0.66	–	–	–	–	–
NCI-H1395	0.913	1.03	0.948	1.1	0.905	0.691	0.869	0.815	0.726	0.662	0.35	0.428	0.406	0.422	0.406	–	–	–	–	–
NCI-H661	0.46	0.467	0.502	0.449	0.343	0.945	0.904	0.948	0.946	0.9	–	–	–	–	–	0.933	–	0.971	1.06	1.1
IA-LM	0.92	0.91	1.02	0.946	0.808	–	–	–	–	–	–	–	–	–	–	0.64	0.671	0.718	0.789	0.703
A549	0.996	1.03	0.872	0.926	0.807	–	–	–	–	–	–	–	–	–	–	0.759	0.723	0.781	0.764	0.8
LCLC-103H	–	–	–	–	–	0.908	1.03	0.935	0.913	0.765	0.76	0.842	0.791	0.848	0.81	1.04	1.02	1.07	1.02	1.18
NCI-H2228	1.08	1.41	1.11	1	1.06	0.129	0.177	0.198	0.145	0.165	–	–	–	–	–	0.484	0.504	0.441	0.494	0.585
